According to patent US20160289702A1, “Biosynthetic Mint” (The University of Manchester, priority 2015, published 2016):

Columns and labels:
His6-MNMR-His6 = assay: Steady-state kinetics, ketoreductase activity by NADPH oxidation monitoring; type: biochemical, Mentha piperita; details: NADPH oxidation at 340 nm, 25° C., monoterpenoid 1 mM
Description: (§1) The concentration of nicotinamide coenzymes (Melford) was determined by the extinction coefficient method (ε340=[…]). Steady-state kinetic analyses were performed on a Cary UV-50 Bio UV/Vis scanning spectrophotometer using a quartz cuvette (1 mL; HelIma) with a 1 cm path length. Standard reactions (1 mL) were performed in buffer (50 mM Tris pH 7.0) containing NADPH (50-100 μM for MMR/MNMR and NtDBR, respectively), monoterpenoid (1 mM) and enzyme (30 nM to 2 μM). Reactions were followed by continuously monitoring NADPH oxidation at 340 nm for 1 min at 25° C. The standard monoterpenoid substrates used were pulegone for NtDBR (alkene reduction) and menthone/isomenthone for both MMR and MNMR (ketoreduction). Ketoreductase reactions were performed in an alternative buffer (12.5 mM tri-sodium citrate, 12.5 mM KH2PO4, 12.5 mM K2HPO4and 12.5 mM CHES) containing dithiothreitol (1 mM; DTT). All steady state reactions were performed in at least duplicate.
(§2) The cloning strategies enable the rapid generation and manipulation of multi-gene expression constructs from individual ‘components’, including the presence of repeated sequences of relatively high GC content. Initially, the three ‘mint’ pathway recombinant enzymes (NtDBR, MMR and MNMR) were purified, and preliminary biocatalytic ability of each was assessed to test their functionality when produced in a bacterial system. The three genes encoding these plant enzymes were first codon-optimised for E. coli and cloned into pET21b to generate C-His6-tagged recombinant enzymes. After production and purification, each enzyme was tested for activity under steady state conditions, via indirect NADPH oxidation monitoring.

MMR-His6 = assay: as above; type: biochemical, Mentha piperita; details: NADPH oxidation at 340 nm, 25° C., monoterpenoid 1 mM
Description: as §1, §2

MMR = details: Davis et al. 2005; cited from earlier work
NtDBR-His6 = biological target: T1, NtDBR-His6 (Nicotiana tabacum, UniProt Q9SLN8); assay: Steady-state kinetics, ene-reductase activity by NADPH oxidation monitoring; type: biochemical; details: NADPH oxidation at 340 nm, 25° C., monoterpenoid 1 mM, 50 mM Tris pH 7.0
T1 construct: made in house; host or cells: E. coli BL21(DE3)pLysS
Description: as §1
The cloning strategies enable the rapid generation and manipulation of multi-gene expression constructs from individual ‘components’, including the presence of repeated sequences of relatively high GC content. Initially, the three ‘mint’ pathway recombinant enzymes (NtDBR, MMR and MNMR) were purified, and preliminary biocatalytic ability of each was assessed to test their functionality when produced in a bacterial system. […]

T1 sequence (Q9SLN8 whole entry): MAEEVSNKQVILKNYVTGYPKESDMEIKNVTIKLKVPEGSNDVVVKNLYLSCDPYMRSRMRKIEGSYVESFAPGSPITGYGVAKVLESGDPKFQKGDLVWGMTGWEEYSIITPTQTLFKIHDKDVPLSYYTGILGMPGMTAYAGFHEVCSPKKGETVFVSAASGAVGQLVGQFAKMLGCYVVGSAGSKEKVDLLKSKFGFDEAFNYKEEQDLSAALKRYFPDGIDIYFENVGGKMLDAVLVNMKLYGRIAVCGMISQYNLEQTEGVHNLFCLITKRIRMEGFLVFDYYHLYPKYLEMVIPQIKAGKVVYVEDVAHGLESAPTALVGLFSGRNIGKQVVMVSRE

| SMILES | Ketoreductase activity (His6-MNMR-His6) [s⁻¹] | Ketoreductase activity (MMR-His6) [s⁻¹] | specificity for menthone over isomenthone (MMR) [fold] | ene-reductase activity (NtDBR-His6) [s⁻¹] |
| --- | --- | --- | --- | --- |
| CC(C)[C@@H]1CC[C@@H](C)CC1=O [(2S,5R)-menthone, (2S,5R)-trans-2-Isopropyl-5-methylcyclohexanone] | 0.96 | 1.63 | 10 |  |
| CC(C)[C@H]1CC[C@@H](C)CC1=O [(2R,5R)-isomenthone] | 0.20 | 2.00 |  |  |
| CC(C)=C1CC[C@@H](C)CC1=O [(5R)-pulegone] |  |  |  | < 0.1 |
